# Patent US20230192705A1, “SHP2 INHIBITORS, COMPOSITIONS AND USES THEREOF” (Betta Pharmaceuticals Co., Ltd, priority 2020, published 2023)
# Biological target: T1, SHP2 (Homo sapiens, UniProt Q06124)
# T1 sequence (Q06124 1-593): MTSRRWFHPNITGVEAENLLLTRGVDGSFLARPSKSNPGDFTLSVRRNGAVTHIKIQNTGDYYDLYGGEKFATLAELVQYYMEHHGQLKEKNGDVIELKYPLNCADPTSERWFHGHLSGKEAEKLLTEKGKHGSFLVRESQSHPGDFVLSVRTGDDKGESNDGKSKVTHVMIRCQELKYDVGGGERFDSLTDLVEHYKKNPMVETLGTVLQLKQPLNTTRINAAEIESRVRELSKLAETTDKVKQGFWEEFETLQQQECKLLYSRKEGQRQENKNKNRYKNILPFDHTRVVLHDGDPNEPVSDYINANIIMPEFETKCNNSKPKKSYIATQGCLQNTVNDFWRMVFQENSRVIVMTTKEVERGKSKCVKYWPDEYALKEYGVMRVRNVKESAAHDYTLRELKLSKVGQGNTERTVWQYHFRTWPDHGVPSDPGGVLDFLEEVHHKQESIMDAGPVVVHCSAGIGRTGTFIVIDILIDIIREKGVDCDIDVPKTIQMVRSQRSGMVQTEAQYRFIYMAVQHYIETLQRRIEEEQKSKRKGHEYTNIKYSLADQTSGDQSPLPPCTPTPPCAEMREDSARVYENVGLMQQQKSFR
# Test: SHP2 allosteric inhibitor enzyme activity assay (DiFMUP fluorescence)
# Type: biochemical
# Procedure, shortened: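 SHP2 activated by 0.5 μM IRS1_pY1172(dPEG8)pY1222 peptide, 0.2 ng enzyme per well, 1 h at room temperature with compound (1 μM top, 3-fold series), then DiFMUP substrate 1 h. Buffer: 60 mM HEPES, 75 mM NaCl, 75 mM KCl, 0.05% BRIJ-35, 1 mM EDTA, 5 mM DTT. Fluorescence ex 340/em 450 nm; IC50 by variable-slope fit.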
IC50 (class symbols),IC50 (numeric values),Compound
20 to 60 nM,–,"N[C@@H]1COCC12CCN(c1nc3[nH]nc(C4(c5ccccc5)CC4)c3c(=O)[nH]1)CC2 [Example 271, (S)-6-(4-amino-2-oxa-8-azaspiro[4.5]decan-8-yl)-3-(1-phenylcyclopropyl)-1,5-dihydro-4H-pyrazolo[3,4-d]pyrimidin-4-one]"
≤ 20 nM,–,"N[C@@H]1c2ccccc2CC12CCN(c1nc3[nH]nc(C4=CCC5(CC5)c5ncccc54)c3c(=O)[nH]1)CC2 [Example 133, (S)-6-(1-amino-1,3-dihydrospiro[indene-2,4′-piperidin]-1′-yl)-3-(7′H-spiro[cyclopropane-1,8′-quinolin]-5′-yl)-1,5-dihydro-4H-pyrazolo[3,4-d]pyrimidin-4-one]"
≤ 20 nM,–,"COc1cc(C2(c3n[nH]c4nc(N5CCC6(CC5)Cc5ccccc5[C@H]6N)[nH]c(=O)c34)CC2)ccn1 [Example 28, (S)-6-(1-amino-1,3-dihydrospiro[indene-2,4′-piperidin]-1′-yl)-3-(1-(2-methoxypyridin-4-yl)cyclopropyl)-1,5-dihydro-4H-pyrazolo[3,4-d]pyrimidin-4-one]"
≤ 20 nM,–,"N[C@@H]1c2ccccc2CC12CCN(c1nc3[nH]nc(C4(c5c[nH]nn5)CC4)c3c(=O)[nH]1)CC2 [Example 253, (S)-3-(1-(1H-1,2,3-triazol-4-yl)cyclopropyl)-6-(1-amino-1,3-dihydrospiro[indene-2,4′-piperidin]-1′-yl)-1,5-dihydro-4H-pyrazolo[3,4-d]pyrimidin-4-one]"
≤ 20 nM,–,"N[C@@H]1c2ccccc2CC12CCN(c1nc3[nH]nc(C4=CCOc5ccc(Cl)cc54)c3c(=O)[nH]1)CC2 [Example 135, (S)-6-(1-amino-1,3-dihydrospiro[indene-2,4′-piperidin]-1′-yl)-3-(6-chloro-2H-chromen-4-yl)-1,5-dihydro-4H-pyrazolo[3,4-d]pyrimidin-4-one]"
≤ 20 nM,–,"N[C@@H]1c2ccccc2CC12CCN(c1nc3[nH]nc(C4=CNS(=O)(=O)c5ccccc54)c3c(=O)[nH]1)CC2 [Example 181, (S)-6-(1-amino-1,3-dihydrospiro[indene-2,4′-piperidin]-1′-yl)-3-(1,1-dioxido-2H-benzo[e][1,2]thiazin-4-yl)-1,5-dihydro-4H-pyrazolo[3,4-d]pyrimidin-4-one]"
20 to 60 nM,–,"C[C@@H]1OCC2(CCN(c3nc4[nH]nc(C5(c6nccs6)CC5)c4c(=O)[nH]3)CC2)[C@@H]1N [Example 277, 6-((3S,4S)-4-amino-3-methyl-2-oxa-8-azaspiro[4.5]decan-8-yl)-3-(1-(thiazol-2-yl)cyclopropyl)-1,5-dihydro-4H-pyrazolo[3,4-d]pyrimidin-4-one]"
≤ 20 nM,–,"N[C@@H]1c2ccccc2CC12CCN(c1nc3[nH]nc(C4(c5cccc(OC6CC6)c5)CC4)c3c(=O)[nH]1)CC2 [Example 227, (S)-6-(1-amino-1,3-dihydrospiro[indene-2,4′-piperidin]-1′-yl)-3-(1-(3-cyclopropoxyphenyl)cyclopropyl)-1,5-dihydro-4H-pyrazolo[3,4-d]pyrimidin-4-one]"
> 60 nM,–,"Cc1cccc(C2(c3n[nH]c4nc(N5CCC6(CC5)CO[C@@H](C)[C@H]6N)[nH]c(=O)c34)CC2)n1 [Example 319, 6-((3S,4S)-4-amino-3-methyl-2-oxa-8-azaspiro[4.5]decan-8-yl)-3-(1-(6-methylpyridin-2-yl)cyclopropyl)-1,5-dihydro-4H-pyrazolo[3,4-d]pyrimidin-4-one]"
≤ 20 nM,–,"N[C@@H]1c2ccccc2CC12CCN(c1nc3[nH]nc(C4(c5ccccc5F)CC4)c3c(=O)[nH]1)CC2 [Example 220, (S)-6-(1-amino-1,3-dihydrospiro[indene-2,4′-piperidin]-1′-yl)-3-(1-(2-fluorophenyl)cyclopropyl)-1,5-dihydro-4H-pyrazolo[3,4-d]pyrimidin-4-one]"
≤ 20 nM,–,"CC1(C)C=C(c2n[nH]c3nc(N4CCC5(CC4)Cc4ccccc4[C@H]5N)[nH]c(=O)c23)c2cc(Br)cnc2C1 [Example 160, (S)-6-(1-amino-1,3-dihydrospiro[indene-2,4′-piperidin]-1′-yl)-3-(3-bromo-7,7-dimethyl-7,8-dihydroquinolin-5-yl)-1,5-dihydro-4H-pyrazolo[3,4-d]pyrimidin-4-one]"
≤ 20 nM,–,"N[C@@H]1c2nc(Cl)sc2CC12CCN(c1nc3[nH]nc(C4(c5ccccc5)CC4)c3c(=O)[nH]1)CC2 [Example 193, (S)-6-(4-amino-2-chloro-4,6-dihydrospiro[cyclopenta[d]thiazole-5,4′-piperidin]-1′-yl)-3-(1-phenylcyclopropyl)-1,5-dihydro-4H-pyrazolo[3,4-d]pyrimidin-4-one]"
≤ 20 nM,–,"N[C@@H]1c2ccccc2CC12CCN(c1nc3[nH]nc(C4(c5cccc(OC(F)F)c5)CC4)c3c(=O)[nH]1)CC2 [Example 52, (S)-6-(1-amino-1,3-dihydrospiro[indene-2,4′-piperidin]-1′-yl)-3-(1-(3-(difluoromethoxy)plienyl)cyclo-propyl)-1,5-dihydro-4H-pyrazolo[3,4-d]pyrimidin-4-one]"
20 to 60 nM,–,"Cc1ccc(C2(c3n[nH]c4nc(N5CCC6(CC5)CO[C@@H](C)[C@H]6N)[nH]c(=O)c34)CC2)cc1 [Example 300, 6-((3S,4S)-4-amino-3-methyl-2-oxa-8-azaspiro[4.5]decan-8-yl)-3-(1-(p-tolyl)cyclopropyl)-1,5-dihydro-4H-pyrazolo[3,4-d]pyrimidin-4-one]"
20 to 60 nM,–,"N[C@@H]1c2ccccc2CC12CCN(c1nc3[nH]nc(C4(c5ccnc(CN6CCCC6)c5)CC4)c3c(=O)[nH]1)CC2 [Example 55, (S)-6-(1-amino-1,3-dihydrospiro[indene-2,4′-piperidin]-1′-yl)-3-(1-(2-(pyrrolidin-1-ylmethyl)pyridin-4-yl)cyclopropyl)-1,5-dihydro-4H-pyrazolo[3,4-d]pyrimidin-4-one]"
≤ 20 nM,–,N#Cc1ccc2c(c1)C(c1n[nH]c3nc(N4CCC5(CC4)Cc4ccccc4C5N)[nH]c(=O)c13)=CCC2(F)F (stereo not drawn) [Example 126]
–,1.7 nM,"N[C@@H]1c2ccccc2CC12CCN(c1nc3[nH]nc(C4=CSCc5ccccc54)c3c(=O)[nH]1)CC2 [Example 134, (S)-6-(1-amino-1,3-dihydrospiro[indene-2,4′-piperidin]-1′-yl)-3-(1H-isothiochromen-4-yl)-1,5-dihydro-4H-pyrazolo[3,4-d]pyrimidin-4-one]"
20 to 60 nM,–,"COc1ccc(C2(c3n[nH]c4nc(N5CCC6(CC5)CO[C@@H](C)[C@H]6N)[nH]c(=O)c34)CC2)cc1 [Example 304, 6-((3S,4S)-4-amino-3-methyl-2-oxa-8-azaspiro[4.5]decan-8-yl)-3-(1-(4-methoxyphenyl)cyclopropyl)-1,5-dihydro-4H-pyrazolo[3,4-d]pyrimidin-4-one]"
> 60 nM,–,"C[C@@H]1OCC2(CCN(c3cnc4c(C5(c6ccccc6)CC5)c[nH]c4n3)CC2)[C@@H]1N [Example 269, (3S,4S)-3-methyl-8-(7-(1-phenylcyclopropyl)-5H-pyrrolo[2,3-b]pyrazin-3-yl)-2-oxa-8-azaspiro[4.5]decan-4-amine]"
20 to 60 nM,–,"C[C@@H]1OCC2(CCN(c3nc4[nH]nc(C5(c6ccc(F)cc6)CC5)c4c(=O)[nH]3)CC2)[C@@H]1N [Example 292, 6-((3S,4S)-4-amino-3-methyl-2-oxa-8-azaspiro[4.5]decan-8-yl)-3-(1-(4-fluorophenyl)cyclopropyl)-1,5-dihydro-4H-pyrazolo[3,4-d]pyrimidin-4-one]"
20 to 60 nM,–,"C[C@@H]1OCC2(CCN(c3nc4[nH]nc(C5(c6ccc(C#N)cc6)CC5)c4c(=O)[nH]3)CC2)[C@@H]1N [Example 315, 4-(1-(6-((3S,4S)-4-amino-3-methyl-2-oxa-8-azaspiro[4.5]decan-8-yl)-4-oxo-4,5-dihydro-1H-pyrazolo[3,4-d]pyrimidin-3-yl)cyclopropyl)benzonitrile]"
≤ 20 nM,–,"CC1(C)C=C(c2n[nH]c3nc(N4CCC5(CC4)Cc4ccccc4[C@H]5N)[nH]c(=O)c23)c2ccc(Cl)nc2C1 [Example 161, (S)-6-(1-amino-1,3-dihydrospiro[indene-2,4′-piperidin]-1′-yl)-3-(2-chloro-7,7-dimethyl-7,8-dihydroquinolin-5-yl)-1,5-dihydro-4H-pyrazolo[3,4-d]pyrimidin-4-one]"
20 to 60 nM,–,"C[C@@H]1OCC2(CCN(c3nc4[nH]nc(C5(c6ccc(OC(F)(F)F)cc6)CC5)c4c(=O)[nH]3)CC2)[C@@H]1N [Example 307, 6-((3S,4S)-4-amino-3-methyl-2-oxa-8-azaspiro[4.5]decan-8-yl)-3-(1-(4-(trifluoromethoxy)phenyl)cyclopropyl)-1,5-dihydro-4H-pyrazolo[3,4-d]pyrimidin-4-one]"
20 to 60 nM,–,"N[C@@H]1Cn2nccc2C12CCN(c1nc3[nH]nc(C4(c5ccccc5)CC4)c3c(=O)[nH]1)CC2 [Example 199, (S)-6-(5′-amino-5′,6′-dihydrospiro[piperidine-4,4′-pyrrolo[1,2-b]pyrazol]-1-yl)-3-(1-phenylcyclopropyl)-1,5-dihydro-4H-pyrazolo[3,4-d]pyrimidin-4-one]"
